Experiments:
[1] = test system: yeast stress response genes; details: MMS 0.1%; published data; cited from earlier work
Wildtype strain [2] = test: HSP26 promoter GFP-uv reporter stress response, fluorimeter; type: cell-based, Saccharomyces cerevisiae; set-up: key: F = fluorescent activity from hsp reporter construct, indicating stress response is induced; NF = no fluorescence, no induction of stress response; details: predicted expectations
Text: (§1) Stress response gene reporter constructs are generally constructed as follows: approximately 500 bp to approximately 1,000 bp or more region upstream of the first start codon of the stress gene of interest (the region encompassing the stress response gene promoter) is fused to the coding region of a reporter polypeptide (e.g., GFP-uv in pRS316 (Sikorski and Hieter (1989) Genetics 122(1):19-27, Clontech). In a specific exemplary construct, approximately 500 bp of the sequence upstream of the hsp26 gene were ligated to the coding region of GFP-uv in pRS316 to provide for expression of the GFP-uv reporter polypeptide under control of the HSP26 promoter.
(§2) The above-described HSP26 construct and a control construct (containing no upstream HSP26 promoter sequence) is transformed into 4 strains: a wildtype strain and strains heterozygous for ALG7, HIS3, and TUB2. The his3 heterozygous strain is sensitive to 3-amino triazole; the alg7 heterozygous strain is sensitive to tunicamycin; and the tub2 heterozygous strain is sensitive to benomyl. The expression of hsp26 activity is then monitored using a fluorimeter. Comparisons (with predicted expectations) are as follows: […]

his3 heterozygote = test: as above; type: cell-based, Saccharomyces cerevisiae; set-up: key: F = fluorescent activity from hsp reporter construct, indicating stress response is induced; NF = no fluorescence, no induction of stress response; details: predicted expectations
Text: as §1
(§3) 80% of all heterozygous deletion strains of Saccharomyces cerevisiae have been constructed. Heterozygous deletion strains were generated using homologous gene transplacement (Rothstein, R. (1991) Meth. Enzymol. 194:281-301) in wild-type diploid strains using standard methods. The resulting heterozygotes carry a deletion in one of the two copies of a given gene.
as §2

alg7 heterozygote = test: as above; type: cell-based, Saccharomyces cerevisiae; set-up: key: F = fluorescent activity from hsp reporter construct, indicating stress response is induced; NF = no fluorescence, no induction of stress response; details: predicted expectations
Text: as §1, §3, §2

tub2 heterozygote = test: as above; type: cell-based, Saccharomyces cerevisiae; set-up: key: F = fluorescent activity from hsp reporter construct, indicating stress response is induced; NF = no fluorescence, no induction of stress response; details: predicted expectations
Text: as §1, §3, §2

tub2 heterozygous strain = details: cited from earlier work
alg7 heterozygous strain [3] = test: Microarray fold transcriptional induction of stress response genes; type: cell-based, Saccharomyces cerevisiae; details: alg7 heterozygote, tunicamycin 0.6 μM, 1 hr, relative to wildtype no drug
Protocol: (§4) In order to identify stress response genes suitable for use in the methods of the present invention, the induction of various stress response genes was tested using microarrays. Three 50 ml cultures were grown at 30° C., a wildtype strain, an alg7 heterozygous strain, and a ymr007w heterozygous strain (the ymr007w strain has been previously shown to be sensitive to tunicamycin, see Giaever, G. et al. (1999) Nature Genet. 21(3):278-283). The wildtype strain was grown in the absence of drug as well as in the presence of […] tunicamycin at an O.D.600 of 1, or approximately 2×10^7 cells/ml for one hour. The alg7 and ymr007w heterozygotes were grown in the presence of […] tunicamycin at an O.D.600 of 1, or approximately 2×10^7 cells/ml for 1 hour. mRNA was then collected from all four samples using standard techniques. cDNA was then prepared from […] of polyadenylated RNA from each sample, using a dT21 primer and Superscript II reverse transcriptase (GibcoBRL) according to manufacturer's recommendation. cDNA was fragmented using DNAseI (GibcoBRL), biotinylated using ddATP (NEN) and Terminal Transferase (Boehringer), and hybridized to yeast full genome arrays (Affymetrix) as described in L. Wodicka et al. (1997) Nature Biotechnol. 15, 1359-1367. Data was analyzed using Affymetrix software.
(§5) In other experiments, the alg 7 and vmr007 heterozygous deletion strains were tested for induction of the stress response in the presence of 0.6 μM tunicamycin for 1 hr (for detailed methods see Example 4). The numbers indicate the fold induction (positive values) or the fold repression (negative values) relative to that of wildype expression in the absence of drug.

[4] = test system: ymr007w heterozygous strain; test: as above; type: cell-based, Saccharomyces cerevisiae; details: ymr007w heterozygote, tunicamycin 0.6 μM, 1 hr, relative to wildtype no drug
Protocol: as §4, §5

Wildtype strain [5] = test: as above; type: cell-based, Saccharomyces cerevisiae
Protocol: as §4
The fold induction of the indicated stress response gene is relative to expression levels in the absence of exposure to the indicated stimuli for the wildtype strain.

alg7 heterozygous strain [6] = details: cited from earlier work
ymr007w strain = details: previously shown, Giaever et al. 1999; cited from earlier work
[7] = TUN 0.6 μM, wildtype, relative to no drug
[8] = Wildtype, tunicamycin 0.6 μM, 1 hr, relative to wildtype no drug (Table 9)

## COS(C)(=O)=O [MMS]
[1]
  fold induction of AMS1 (YGL156W): 3.3 fold
  fold induction of DDR48 (YMR173w): 6 fold
  fold induction of GFA1 (YKL104C): 3.3 fold
  fold induction of GSC2 (YGR032W): 2.5 fold
  fold induction of HSP10 (YOR020C): 1 fold
  fold induction of HSP12 (YFL014W): 4.2 fold
  fold induction of HSP26 (YBR072W): 2.6 fold
  fold induction of HSP30 (YCR021C): 2 fold
  fold induction of HSP42 (YDR171w): 1.5 fold
  fold induction of HSP60 (YLR259C): 1 fold
  fold induction of HSP78 (YDR258C): 2.8 fold
  fold induction of HSP82 (YPL240C): 1.8 fold
  fold induction of HSP104 (YLL026W): 2 fold
  fold induction of HXT5 (YHR096C): 1.9 fold
  fold induction of ISF1 (YMR081C): 2.9 fold
  fold induction of PAI3 (YMR174C): 5.1 fold
  fold induction of PRY1 (YJL079C): 1 fold
  fold induction of PUT1 (YLR142W): 1 fold
  fold induction of SNZ3 (YFL059W): 2.3 fold
  fold induction of SSA1 (YAL005C): 6.4 fold
  fold induction of TSI1 (YLR178C): 5.7 fold
  fold induction of UBC5 (YDR059c): 5.5 fold
  fold induction of YBL049W: 1 fold
  fold induction of YDR018C: 1 fold
  fold induction of YFL030W: 5 fold
  fold induction of YFR026C: 2.2 fold
  fold induction of YGR043C: 3.5 fold
  fold induction of YIL042C: 1.4 fold
  fold induction of YIL117C: 2.3 fold
  fold induction of YJL144W: 1.6 fold
  fold induction of YKL107W: 1.7 fold
  fold induction of YLR053C: 1 fold
  fold induction of YLR080W: 5.6 fold
  fold induction of YLR194C: 1 fold
  fold induction of YMR040W: 1.5 fold
  fold induction of YMR090W: 8 fold
  fold induction of YMR107W: 1 fold
  fold induction of YNL194C: 2.9 fold
  fold induction of YPS3 (YLR121C): 1 fold

## CCCCNC(=O)n1c(NC(=O)OC)nc2ccccc21 [benomyl]
Wildtype strain [2]
  fluorescent activity from hsp26 reporter construct: F
his3 heterozygote
  fluorescent activity from hsp26 reporter construct: F
alg7 heterozygote
  fluorescent activity from hsp26 reporter construct: F
tub2 heterozygote
  fluorescent activity from hsp26 reporter construct: NF
tub2 heterozygous strain
  sensitivity of strain to drug: sensitive

## tunicamycin
Wildtype strain [2]
  fluorescent activity from hsp26 reporter construct: F
alg7 heterozygous strain [3]
  fold induction (positive) or fold repression (negative) of HXT5 (YHR096C): 1 fold
  fold induction (positive) or fold repression (negative) of YMR107W: 1 fold
[4]
  fold induction (positive) or fold repression (negative) of HSP26 (YBR072W): 1.4 fold
  fold induction (positive) or fold repression (negative) of HXT5 (YHR096C): 1 fold
  fold induction (positive) or fold repression (negative) of YMR107W: 1 fold
his3 heterozygote
  fluorescent activity from hsp26 reporter construct: F
alg7 heterozygote
  fluorescent activity from hsp26 reporter construct: NF
tub2 heterozygote
  fluorescent activity from hsp26 reporter construct: F
Wildtype strain [5]; [7]
  fold induction of AMS1 (YGL156W): 20 fold
  fold induction of DDR48 (YMR173w): 4.3 fold
  fold induction of GFA1 (YKL104C): 11.2 fold
  fold induction of GSC2 (YGR032W): 9.2 fold
  fold induction of HSP10 (YOR020C): 2 fold
  fold induction of HSP12 (YFL014W): 2.9 fold
  fold induction of HSP26 (YBR072W): 18 fold
  fold induction of HSP30 (YCR021C): 2 fold
  fold induction of HSP42 (YDR171w): 6 fold
  fold induction of HSP60 (YLR259C): 1 fold
  fold induction of HSP78 (YDR258C): 6.5 fold
  fold induction of HSP82 (YPL240C): 2.8 fold
  fold induction of HSP104 (YLL026W): 2 fold
  fold induction of HXT5 (YHR096C): 200 fold
  fold induction of ISF1 (YMR081C): 3.5 fold
  fold induction of PAI3 (YMR174C): 6.1 fold
  fold induction of PRY1 (YJL079C): 13 fold
  fold induction of PUT1 (YLR142W): 25 fold
  fold induction of SNZ3 (YFL059W): 25 fold
  fold induction of SSA1 (YAL005C): 1 fold
  fold induction of TSI1 (YLR178C): 6.2 fold
  fold induction of UBC5 (YDR059c): 2.1 fold
  fold induction of YBL049W: 15 fold
  fold induction of YDR018C: 7.5 fold
  fold induction of YFL030W: 11 fold
  fold induction of YFR026C: 20.9 fold
  fold induction of YGR043C: 17 fold
  fold induction of YIL042C: 5 fold
  fold induction of YIL117C: 13 fold
  fold induction of YJL144W: 19.1 fold
  fold induction of YKL107W: 112 fold
  fold induction of YLR053C: 200 fold
  fold induction of YLR080W: 8.4 fold
  fold induction of YLR194C: 5.1 fold
  fold induction of YMR040W: 12.8 fold
  fold induction of YMR090W: 5.6 fold
  fold induction of YMR107W: 79 fold
  fold induction of YNL194C: 4.5 fold
  fold induction of YPS3 (YLR121C): 15 fold
Wildtype strain [5]; [8]
  fold induction (positive) or fold repression (negative) of HSP26 (YBR072W): 17 fold
  fold induction (positive) or fold repression (negative) of HXT5 (YHR096C): 50 fold
  fold induction (positive) or fold repression (negative) of YGR043C: 17 fold
  fold induction (positive) or fold repression (negative) of YMR107W: 40 fold
  fold induction (positive) or fold repression (negative) of YPS3 (YLR121C): 15 fold
alg7 heterozygous strain [6]
  sensitivity of strain to drug: sensitive
ymr007w strain
  sensitivity of strain to drug: sensitive
